The source of these data is paper PMC12935919 (Frontiers in Pharmacology, 2026).

The subject of the test is C2C12 myotubes. Kind of test: DEX-induced muscle atrophy model, Western blot. The class given is cell-based. The note with it: 10 μM DEX 24 h, alone or with 10 or 100 μM Myoki. The method, then:
To induce C2C12 myotube differentiation, myoblasts were seeded in 6-well plates at 5 × 10^5 cells per well. Once reaching 90% confluency, they were cultured in DMEM supplemented with 2% horse serum (Thermo Fisher Scientific) and 1% penicillin-streptomycin. […] Differentiation was observed using an optical microscope (LEICA, 100×). Myotube morphology (length and diameter) was quantified in ImageJ (NIH) using the same images: myotube length was measured by tracing the long axis of each myotube (end-to-end), and myotube diameter was measured as the short-axis width at three positions along each myotube; the mean of the three width values was recorded as the diameter. For each experimental group, three randomly captured images (fields) were analyzed, and at least 15–20 myotubes per image were quantified under identical imaging settings.
Treated C2C12 cells (5 × 10^5 cells/well) were harvested in lysis buffer (Sigma-Aldrich, 2910) and centrifuged at 12,000 g for 10 min; proteins in the supernatant were collected. Protein concentrations were measured using the BCA Protein Assay Kit (Thermo Fisher Scientific). Each 20 μg sample was separated using 10% SDS–PAGE and transferred onto a polyvinylidene fluoride membrane (Millipore, Burlington, MA, USA). Non-specific binding was blocked with 5% non-fat dry milk for 1 h. The membranes were incubated overnight with primary antibodies: Anti-Myf5 (Abcam, ab125078), Anti-Myf6 (Abcam, ab182842), Anti-MyoD (Santa Cruz, sc-377460), Anti-MyoG (Santa Cruz, sc-52903), Anti-α-actinin (Santa Cruz, sc-17829), Anti-MYH3 (Santa Cruz, sc-53091), Anti-p-mTOR (Ser2448) (CST, #5536), Anti-p-Akt (Ser473) (CST, #9271), Anti-p-p70 S6 Kinase (Thr389) (CST, #9205), Anti-myostatin (Abcam, ab124721), Anti-atrogin-1/MAFbx (Santa Cruz, sc-166806), and Anti-MuRF1 (Santa Cruz, sc-398608). Membranes were then incubated for 1 h with HRP-conjugated secondary antibodies. Blot images were captured with the ECL system (Amersham, UK) and quantified using ImageJ.
(In western blotting, separated proteins are transferred to a membrane and probed.)

Regarding `C[C@@H]1C[C@H]2[C@@H]3CCC4=CC(=O)C=C[C@]4(C)[C@@]3(F)[C@@H](O)C[C@]2(C)[C@@]1(O)C(=O)CO` [DEX, dexamethasone, reference compound], the MuRF1 expression result is “significant increase”; the atrogin-1/MAFbx expression entry is “significant increase”; the “expression levels of differentiated muscle fiber structural proteins” value was “significantly reduced”; the “phosphorylation levels of muscle growth signaling proteins (Akt, mTOR, p70S6K)” value is listed as “significantly reduced”.
